Test results as given in US20240294478A1, “ANTI-CANCER COMPOUNDS AND METHODS OF USE” (YALE UNIVERSITY, priority 2021, published 2024).

How the values were obtained:
LN229 MGMT+ shMLH1 cells = assay: Short-term viability assay, LN229 MGMT+ shMLH1; type: cell-based; conditions: Homo sapiens, LN-229, Table III, read-out: IC50 against LN229 cell lines, MGMT MMR−
Description: (§1) The activity of KL-50 in MGMT-LN229 cells engineered to lack expression of other key MMR proteins including MSH6, MLH1, PMS2, and MSH3 was also confirmed. Western blotting was performed in LN229 MGMT+/−cells with stable expression of shRNA targeting MSH6, MLH1, PMS2, or MSH3 to confirm depletion of the shRNA targets. In shMSH6 cells, there was reduced expression of MSH2, and in shMLH1 cells, there was loss of PMS2, due to destabilization in the setting of loss of their heterodimeric partners. GAPDH serves as loading control. […] Short-term viability assay curves for KL-50 in LN229 MGMT+/−, MMR+/shMSH6 cells. […] Short-term viability assay curves for KL-50 in LN229 MGMT+/−, MMR+/shMLH1 cells. […] Short-term viability assay curves for KL-50 in LN229 MGMT+/−, MMR+/shPMS2 cells. […] Short-term viability assay curves for KL-50 in LN229 MGMT+/−, MMR+/shMSH3 cells.
MMR Protein shRNA Knockdown. pGIPZ lentiviral shRNA vectors targeting MSH2, MSH6, MLH1, PMS2, and MSH3 were purchased from Horizon Discovery (Table IV). […]
(§2) Short-term Cell Viability Assay. […] Cells were imaged on a Cytation 3 imaging reader (BioTek) and quantified using CellProfiler software. For in vitro short-term growth delay experiments, IC50 values were determined from the nonlinear regression equation, [inhibitor] vs normalized response with variable slope.

LN229 MGMT− shPMS2 cells = assay: Short-term viability assay, LN229 MGMT- shPMS2; type: cell-based, human; conditions: for IC50: Homo sapiens, LN-229, Table III, read-out: IC50 against LN229 cell lines, MGMT− MMR−; for MGMT− RI: Table III
Description: as §1
MMR Protein shRNA Knockdown. pGIPZ lentiviral shRNA vectors targeting MSH2, MSH6, MLH1, PMS2, and MSH3 were purchased from Horizon Discovery (Table IV). Lentiviral particles were produced in HEK293T cells via co-transfection with lentiviral shRNA plasmid, pCMV-VSV-G envelope plasmid (Addgene, #8454) and psPAX2 packaging plasmid (Addgene, #12260), using Lipofectamine 3000 Reagent (Invitrogen, L3000001) per manufacturer's protocol. Viral particles were harvested 48 h post-transfection and used to transduce LN229 MGMT+/−cells in the presence of 8 μg/mL polybrene. Selection of pooled cells with lentiviral expression was established with 1 μg/mL puromycin 48 h post-transduction for 3 to 4 days. Single cell cloning was performed by limiting dilution and protein knockdown was confirmed by western blotting.
(§3) Short-term Cell Viability Assay. Cells were seeded in 96-well plates at 1000 or 2000 cells/well and allowed to adhere at 23° C. for 60 min and then incubated overnight at 37° C. Cells were treated with indicated concentrations of compounds in triplicate for 4-6 days prior to fixation with 3.7% paraformaldehyde and nuclear staining with 1 μg/mL Hoechst 33342 dye. Cells were imaged on a Cytation 3 imaging reader (BioTek) and quantified using CellProfiler software. For in vitro short-term growth delay experiments, IC50 values were determined from the nonlinear regression equation, [inhibitor] vs normalized response with variable slope.

[1] = test system: PD20 cells, deficient in FANCD2 (FANCD2−/−) or complemented with FANCD2; assay: Short-term viability assay, PD20 cells; type: cell-based, human; conditions: PD20 FANCD2−/− vs +FANCD2
Description: FIGS. 8A-8K. (FIG. 8A) Change in percent cells with 1 micronuclei from baseline (DMSO control) after treatment as in FIGS. 5A and 5C. […] (FIG. 8B) Short-term viability assay curves for KL-50 in PD20 cells, deficient in FANCD2 (FANCD2−/−) or complemented with FANCD2 (+FANCD2). (FIG. 8C) Short-term viability assay curves for KL-50 in PEO4 (BRCA2+) and PEO1 (BRCA2−/−) cells pre-treated with 0.01% DMSO control or 10 μM O^6BG (+O^6BG) for 1 h prior to KL-50 addition. (FIG. 8D) Short-term viability assay curves for KL-50 in DLD1 BRCA2+/− and BRCA2−/−cells pre-treated with 0.01% DMSO control or 10 μM O^6BG (+O^6BG) for 1 h prior to KL-50 addition. For FIGS. 8B-8D, points, mean; error bars, SD; n=3 technical replicates. […] Change in percent cells with 1 micronuclei from baseline (DMSO control) after treatment with olaparib (10 μM) for 48 h in LN229 MGMT+/−, MMR+/−cells. […] Western blot analysis of FANCD2 ubiquitination in LN229 MGMT+/−, MMR+/−cells and PD20 FANCD2-deficient cells, complemented with empty vector (FANCD2+EV), wildtype FANCD2 (PD20+FD2) or ubiquitination-mutant FANCD2 (PD20+KR). The % FANCD2 ubiquitination (% FANCD2 Ub) is quantified as the background-corrected integrated band intensity of the upper band divided by the sum of the background-corrected integrated band intensities of the upper and lower bands. The fold change in % FANCD2 ubiquitination is presented for each cell line relative to DMSO-treated cells. Vinculin serves as loading control. For 8J-8K, points, mean; error bars, SD; n=3 technical replicates.
as §3, with “Cells were treated with indicated concentrations of compounds in triplicate for 4-6 days prior to fixation with 3.7% paraformaldehyde and nuclear staining with 1 μg/mL Hoechst 33342 dye.” left out

[2] = test system: PEO4 (BRCA2+) and PEO1 (BRCA2−/−) cells; assay: Short-term viability assay, PEO1/PEO4 model +/- O6BG; type: cell-based, human; conditions: PE01/4 model
Description: FIGS. 8A-8K. (FIG. 8A) Change in percent cells with 1 micronuclei from baseline (DMSO control) after treatment as in FIGS. 5A and 5C. […] (FIG. 8B) Short-term viability assay curves for KL-50 in PD20 cells, deficient in FANCD2 (FANCD2−/−) or complemented with FANCD2 (+FANCD2). (FIG. 8C) Short-term viability assay curves for KL-50 in PEO4 (BRCA2+) and PEO1 (BRCA2−/−) cells pre-treated with 0.01% DMSO control or 10 μM O^6BG (+O^6BG) for 1 h prior to KL-50 addition. (FIG. 8D) Short-term viability assay curves for KL-50 in DLD1 BRCA2+/− and BRCA2−/−cells pre-treated with 0.01% DMSO control or 10 μM O^6BG (+O^6BG) for 1 h prior to KL-50 addition. For FIGS. 8B-8D, points, mean; error bars, SD; n=3 technical replicates. […] The % FANCD2 ubiquitination (% FANCD2 Ub) is quantified as the background-corrected integrated band intensity of the upper band divided by the sum of the background-corrected integrated band intensities of the upper and lower bands. […]
as §2

Row | Compound | IC50 (LN229 MGMT+ shMLH1 cells) | IC50 (LN229 MGMT− shPMS2 cells) | MGMT− RI (LN229 MGMT− shPMS2 cells) | sensitivity of FANCD2-deficient cells [1] | therapeutic index (TI) [2]
1 | NC(=O)c1ncn2c(=O)n(CCF)nnc12 [KL-50] | 252 ± 28 µM | 5.4 ± 0.3 µM | 0.4 | hypersensitive | 62 fold
2 | Cn1nnc2c(C(N)=O)ncn2c1=O [TMZ, 4-methyl-5-oxo-2,3,4,6,8-pentazabicyclo[4.3.0]nona-2,7,9-triene-9-carboxamide, reference compound] | 769 ± 100 µM | 921 ± 190 µM | 181 | – | –
